Test results published in patent publication US12509474B2, “Inhibitors of complement factors and uses thereof” (Annexon, Inc., priority 2020, dated 2025).
Structures can show the parent of a compound that is named as a salt.

Target: T1, human C1s protein (Homo sapiens, UniProt P09871)
T1 construct: A104
T1 sequence (P09871 16-688): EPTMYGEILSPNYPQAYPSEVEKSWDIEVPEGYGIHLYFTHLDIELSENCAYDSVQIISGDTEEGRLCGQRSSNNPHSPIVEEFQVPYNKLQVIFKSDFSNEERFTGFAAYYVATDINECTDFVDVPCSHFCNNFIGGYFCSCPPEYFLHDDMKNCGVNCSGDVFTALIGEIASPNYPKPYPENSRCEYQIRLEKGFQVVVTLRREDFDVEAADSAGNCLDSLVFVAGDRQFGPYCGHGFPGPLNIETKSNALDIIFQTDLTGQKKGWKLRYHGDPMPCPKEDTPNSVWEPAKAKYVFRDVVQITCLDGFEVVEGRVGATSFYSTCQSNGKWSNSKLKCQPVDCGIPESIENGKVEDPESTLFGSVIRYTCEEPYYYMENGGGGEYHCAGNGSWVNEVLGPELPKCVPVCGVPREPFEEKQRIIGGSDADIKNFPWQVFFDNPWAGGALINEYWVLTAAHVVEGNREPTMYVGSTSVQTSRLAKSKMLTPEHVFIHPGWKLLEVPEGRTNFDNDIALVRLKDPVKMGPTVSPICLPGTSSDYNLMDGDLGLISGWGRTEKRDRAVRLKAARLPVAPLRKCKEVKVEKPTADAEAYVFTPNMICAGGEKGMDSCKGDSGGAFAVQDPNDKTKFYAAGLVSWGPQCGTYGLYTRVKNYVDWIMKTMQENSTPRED
Experiment: C1s enzymatic assay (hydrolysis of YLGR-Rh110-dPro)
Format: biochemical
Conditions: substrate YLGR-Rh110-dPro 20 μM, 15 min pre-incubation, 60 min RT, fluorescence, read-out: hC1s pIC50 (converted)
Method in brief: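 Fluorogenic assay in which C1s cleaves YLGR-Rh110-dPro (20 μM final) to release fluorescent Rh110, in buffer with 0.1 mg/mL BSA. Enzyme was preincubated 15 min with compound before substrate was added. Compounds were run as 11-point curves, with DMSO as high control and Nafamostat as low control.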

Row | Compound | IC50
1 | Nc1cnnc2cc(-c3cc(B(O)O)cc4c3OC(F)(F)O4)ccc12 [Example 128, [7-(4-aminocinnolin-7-yl)-2,2-difluoro-2H-1,3-benzodioxol-5-yl]boronic Acid] | 0.55 nM
2 | COc1ccc(B(O)O)cc1-c1ccc2nccc(N)c2c1 [Example 129, [3-(4-aminoquinolin-6-yl)-4-methoxyphenyl]boronic Acid Formic Acid Salt] | 6920 nM
3 | COc1ccc(B(O)O)cc1-c1cnc2c(N)nccc2c1 [Example 130, [3-(8-amino-1,7-naphthyridin-3-yl)-4-methoxyphenyl]boronic Acid Formic Acid Salt] | 67.6 nM
4 | Cc1nnc(N)c2ccc(-c3cc(B(O)O)ccc3OC(F)F)cc12 [Example 131, [3-(1-amino-4-methylphthalazin-6-yl)-4-(difluoromethoxy)phenyl]boronic Acid Formic Acid Salt] | 0.617 nM
5 | COc1cc(C)c(B(O)O)cc1-c1ccc2c(N)cnnc2c1 [Example 134, [5-(4-aminocinnolin-7-yl)-4-methoxy-2-methylphenyl]boronic Acid Formic Acid Salt] | 2.09 nM
6 | COCc1cc(OC)c(-c2ccc3c(N)cnnc3c2)cc1B(O)O [Example 137, [5-(4-aminocinnolin-7-yl)-4-methoxy-2-(methoxymethyl)phenyl]boronic Acid Formic Acid Salt] | 2.82 nM
7 | Nc1cnnc2cc(-c3cc(B(O)O)cc4c3OCC4)ccc12 [Example 138, [7-(4-aminocinnolin-7-yl)-2,3-dihydro-1-benzofuran-5-yl]boronic Acid Formic Acid Salt] | 1.62 nM
8 | COc1ccc(B(O)O)cc1-c1cnc2cnccc2c1 [Example 139, [4-methoxy-3-(1,7-naphthyridin-3-yl)phenyl]boronic Acid] | > 25100 nM
9 | Nc1cnnc2cc(-c3cc(B(O)O)ccc3OC3CC(F)(F)C3)ccc12 [Example 142, [3-(4-aminocinnolin-7-yl)-4-(3,3-difluorocyclobutoxy)phenyl]boronic Acid Formic Acid Salt] | 1.17 nM
10 | Nc1cnnc2cc(-c3cc(B(O)O)ccc3N3CCOCC3)ccc12 [Example 143, [3-(4-aminocinnolin-7-yl)-4-(morpholin-4-yl)phenyl]boronic Acid Formic Acid Salt] | 57.5 nM
11 | COc1ccc(B(O)O)cc1-c1cnc2c(N)cnnc2c1 [Example 144, (3-{4-aminopyrido[3,2-C]pyridazin-7-yl}-4-methoxyphenyl)boronic Acid] | 66.1 nM
12 | Nc1cnnc2cc(-c3cc(B(O)O)cc4c3OCCC4)ccc12 [Example 145, [8-(4-aminocinnolin-7-yl)-3,4-dihydro-2H-chromen-6-yl]boronic Acid Formic Acid Salt] | 3.09 nM
13 | Cn1nc(C2CC2)c2c(B(O)O)cc(-c3ccc4c(N)cnnc4c3)cc21 [Example 146, [6-(4-aminocinnolin-7-yl)-3-cyclopropyl-1-methyl-1H-indazol-4-yl]boronic Acid] | 5.25 nM
14 | Nc1cnnc2cc(-c3cc(B(O)O)c4occc4c3)ccc12 [Example 149, [5-(4-aminocinnolin-7-yl)-1-benzofuran-7-yl]boronic Acid Formic Acid Salt] | 0.603 nM
15 | Nc1cnnc2cc(-c3cc(B(O)O)ccc3N3CCCC3)ccc12 [Example 150, [3-(4-aminocinnolin-7-yl)-4-(pyrrolidin-1-yl)phenyl]boronic Acid Formic Acid Salt] | 50.1 nM
16 | Nc1cnnc2cc(-c3ccc4c(c3)B(O)ON=C4)ccc12 [Example 156, 7-(4-aminocinnolin-7-yl)-1H-2,3,1-benzoxazonin-1-ol Formic Acid Salt] | 55 nM
17 | COc1ccc(B(O)O)cc1-c1ccc2c(O)cnnc2c1 [Example 158, [3-(4-hydroxycinnolin-7-yl)-4-methoxyphenyl]boronic Acid] | > 25100 nM
18 | O=CO.[2H]C([2H])([2H])Oc1ccc(B(O)O)cc1-c1ccc2c(N)cnnc2c1 [Example 159, [3-(4-aminocinnolin-7-yl)-4-(^2H3)methoxyphenyl]boronic Acid Formic Acid Salt] | 1.26 nM
19 | COc1ccc(B(O)O)cc1-c1ccc2c(O)nncc2c1 [Example 160, [3-(1-hydroxyphthalazin-6-yl)-4-methoxyphenyl]boronic Acid] | > 25100 nM
20 | COc1ccc(B(O)O)cc1-c1ccc2ccncc2c1 [Example 161, [3-(isoquinolin-7-yl)-4-methoxyphenyl]boronic Acid] | > 25100 nM
21 | COc1ccc(B(O)O)cc1-c1cc(OC)c2ccnnc2c1 [Example 162, [4-methoxy-3-(5-methoxycinnoline-7-yl)phenyl]boronic Acid] | > 25100 nM
22 | CC(F)(F)Oc1ccc(B(O)O)cc1-c1ccc2c(N)cnnc2c1 [Example 163, [3-(4-aminocinnolin-7-yl)-4-(1,1-difluoroethoxy)phenyl]boronic Acid Formic Acid Salt] | 1.05 nM
23 | CS(=O)(=O)c1ccc(B(O)O)cc1-c1ccc2c(N)cnnc2c1 [Example 164, [3-(4-aminocinnolin-7-yl)-4-methylsulfonylphenyl]boronic acid formic acid salt] | 12.6 nM
24 | Nc1cnnc2cc(-c3cc(B(O)O)ccc3N3CCNS3(=O)=O)ccc12 [Example 165, [3-(4-aminocinnolin-7-yl)-4-(1,1-dioxo-1,2,5-thiadiazolidin-2-yl)phenyl]boronic Acid] | 7.41 nM
25 | Nc1cnnc2cc(-c3cc(B(O)O)ccc3Oc3ccc(F)cc3)ccc12 [Example 167, [3-(4-aminocinnolin-7-yl)-4-(4-fluorophenoxy)phenyl]boronic Acid Formic Acid Salt] | 1.66 nM
26 | Nc1cnnc2cc(-c3cc(B(O)O)ccc3Oc3cncs3)ccc12 [Example 168, [3-(4-aminocinnolin-7-yl)-4-(1,3-thiazol-5-yloxy)phenyl]boronic Acid Formic Acid Salt] | 1.32 nM
27 | Nc1cnnc2cc(-c3cc(B(O)O)ccc3Oc3nccs3)ccc12 [Example 169, [3-(4-aminocinnolin-7-yl)-4-(1,3-thiazol-2-yloxy)phenyl]boronic Acid Formic Acid Salt] | 1.45 nM
28 | CC1(C)Cc2cc(B(O)O)cc(-c3ccc4c(N)cnnc4c3)c2O1 [Example 170, [7-(4-aminocinnolin-7-yl)-2,2-dimethyl-2,3-dihydro-1-benzofuran-5-yl]boronic Acid Formic Acid Salt] | 1.07 nM
29 | Cc1ncc(Oc2ccc(B(O)O)cc2-c2ccc3c(N)cnnc3c2)s1 [Example 171, [3-(4-aminocinnolin-7-yl)-4-(2-methylthiazol-5-yl)oxy-phenyl]Boronic Acid Formic Acid Salt] | 1.29 nM
